In one experiment the test system is U937 cells. Kind of experiment: Inhibition of TNF-α-induced necroptosis of U937 cells (CCK-8 assay). The experiment is classed as cell-based, human. The note with it: Homo sapiens, U-937, TNF-α 20 ng/mL + BV6 2 µM + Z-VAD-FMK 20 µM, 18 h. An excerpt:
Example 56: Inhibition of TNF-α-Induced Necroptosis of U937 Cells by Compounds
• 1. Experimental reagents: RPMI-1640 culture medium, fetal bovine serum, penicillin-streptomycin, TNF-α (MCE, HY-P7058), BV6 (MCE, HY-16701), Z-VAD-FMK (MCE, HY-16658B), and CCK-8 (Dalian Meilun Biotech Co., Ltd., MA0218). • 2. Experimental instruments: medical low-temperature freezer (Thermo Fisher scientific, 902-ULTS), electrically heated thermostatic water bath (Shanghai Bluepard Instruments Co., Ltd., CD-420), low-speed centrifuge (ANHUI USTC Zonkia Scientific Instruments Co., Ltd, SC-3616), carbon dioxide incubator (Shanghai Bluepard Instruments Co., Ltd., BPN-150CH(UV)), inverted microscope (Olympus, CKX53), multi-functional microplate reader (Thermo Tecan, SPARK), class-II biosafety cabinet (AIRTECH, BSC-1304IIA2), and desktop cell counter (Thermo Fisher Scientific, Countess II). • 3. Cell culturing: U937 cells (human histiocytic lymphoma cells) were cultured in an RPMI-1640 culture solution containing 10% fetal bovine serum and 1% penicillin-streptomycin solution in a 5% CO2 incubator at 37 °C and a saturated humidity. The cell culture flask was vertically placed in the incubator. A T25 culture flask was used as an example, the culture solution in the flask was 6-8 mL, and culture medium changes and cell passaging were performed 3-4 times a week. • 4. […] The culture medium was taken out from the freezer and transferred to the water bath for pre-heating. An appropriate amount of culture medium was then taken for use. • (2) The cell suspension was transferred to a 15 mL sterile centrifuge tube and centrifuged at 850 rpm for 4 min to collect U937 cells. • (3) The supernatant was carefully discarded, and an appropriate amount of culture medium was added. The mixture was gently pipetted using a pipette to homogenize the cells and thus prepare a single-cell suspension, and the cells were counted. • (4) The cells were diluted to 4 × 10^5/mL and seeded into a 96-well plate at 90 µL/well, such that the cell density in the 96-well plate was 3.6 × 10 ^4 cells/well. The cells were incubated in a 5% CO 2 incubator at 37 °C and a saturated humidity for 6 h, followed by the addition of compounds. • 4.2 Dilution and addition of compounds: • (1) TNF-α was dissolved in PBS to obtain a 100 µg/mL stock solution and aliquoted; Z-VAD-FMK was dissolved in DMSO to obtain a 10 mM stock solution and aliquoted; BV6 was dissolved in DMSO to obtain a 10 mM stock solution and aliquoted; GSK2982772 was dissolved in DMSO to obtain a 10 mM stock solution and aliquoted. One aliquot of each stock solution was stored at -20 °C for immediate use, while the remaining aliquots were stored at - 80 °C and used within their shelf life. • (2) RPMI-1640 culture medium containing TNF-α, BV6, and Z-VAD-FMK was prepared (5 µL/per well), such that the final concentrations of TNF-α, BV6, and Z-VAD-FMK were 20 ng/mL, 2 µM, and 20 µM, respectively. • (3) Each target compound was three-fold diluted with a culture medium to 8 concentration gradients, with each concentration set in duplicate (5 µL/well). The final concentrations of each target compound were 1000.00/333.33/111.11/37.04/12.35/4.12/1.37/0.46 nM. • (4) The 96-well plate containing 90 µL of cell suspension was taken out from an incubator, and a positive control group, test compound groups, and a DMSO (5‰) control group were set. 5 µL of RPMI-1640 culture solution containing TNF-α, BV6, and Z-VAD-FMK and 5 µL of culture solution containing the test compound were added to the positive control group and the test compound groups. After compound addition, the mixtures were cultured for 18 h, followed by the CCK-8 assay. • (5) The 96-well plate was taken out, and the CCK-8 reagent was carefully added at 10 µL/well. The mixtures were incubated at 37 °C for 2-4 h, and the absorbance value was measured at a wavelength of 450 nm. • 5. Evaluation of inhibitory activity of compounds on TNF-α-induced necroptosis of U937 [formula] […]
On the technique in general: Tetrazolium dyes change colour on reduction, which living cells bring about.

A further experiment deals with HT-29 cells. As to the kind of experiment: Inhibition of TNF-α-induced necroptosis of HT-29 cells (SRB method). The experiment is classed as cell-based, human. As to conditions: Homo sapiens, HT-29, TNF-α 20 ng/mL + BV6 2 µM + Z-VAD-FMK 20 µM, 18 h. From the text: Example 57: Inhibition of TNF-α-Induced Necroptosis of HT-29 Cells by Compounds
• 1. Experimental reagents: McCOY's 5A culture medium, fetal bovine serum, penicillin-streptomycin, trypsin, PBS, TNF-α (MCE, HY-P7058), BV6 (MCE, HY-16701), Z-VAD-FMK (MCE, HY-16658B), SRB kit (Shanghai BestBio Biotechnology Co., Ltd., BB-4208-500T). • 2. Experimental instruments: medical low-temperature freezer (Thermo Fisher scientific, 902-ULTS), electrically heated thermostatic water bath (Shanghai Bluepard Instruments Co., Ltd., CD-420), low-speed centrifuge (ANHUI USTC Zonkia Scientific Instruments Co., Ltd, SC-3616), carbon dioxide incubator (Shanghai Bluepard Instruments Co., Ltd., BPN-150CH(UV)), inverted microscope (Olympus, CKX53), multi-functional microplate reader (Thermo Tecan, SPARK), class-II biosafety cabinet (AIRTECH, BSC-1304IIA2), and desktop cell counter (Thermo Fisher Scientific, Countess II). • 3. Cell culturing: HT-29 cells (human colon cancer cells) were cultured in a McCOY's 5A culture solution containing 10% fetal bovine serum and 1% penicillin-streptomycin solution in a 5% CO 2 at 37 °C and a saturated humidity, and culture medium changes and cell passaging were performed 3-4 times a week. • 4. […] The culture medium, trypsin, etc., were taken out from the freezer and transferred to the water bath for pre-heating. An appropriate amount of these substances was then taken for use. • (2) The old culture medium in the flask was aspirated using a sterile pipette and discarded, and the cells were washed 3 times with PBS. 1 mL of trypsin (25 cm^2 cell culture flask) was added into the flask, and the flask was gently shaken to allow the trypsin to cover all the cell surfaces. Digestion was performed in an incubator at 37 °C. After 2 min of digestion, the flask was placed under a microscope for observation. […] The mixture was gently pipetted using a pipette to homogenize the cells and thus prepare a single-cell suspension, and the cells were counted. • (5) The cells were diluted to 3 × 10^5/mL and seeded into a 96-well plate at 100 µL/well, such that there were 3 × 10^4 cells per well in the 96-well plate. The cells were incubated in a 5% CO2 incubator at 37 °C and a saturated humidity for 24 h, followed by the addition of compounds. • 4.2 Dilution and addition of compounds: • (1) TNF-α was dissolved in PBS to obtain a 100 µg/mL stock solution and aliquoted; Z-VAD-FMK was dissolved in DMSO to obtain a 10 mM stock solution and aliquoted; BV6 was dissolved in DMSO to obtain a 10 mM stock solution and aliquoted; GSK2982772 was dissolved in DMSO to obtain a 10 mM stock solution and aliquoted. One aliquot of each stock solution was stored at -20 °C for immediate use, while the remaining aliquots were stored at - 80 °C and used within their shelf life. • (2) McCOY's 5A culture solution containing TNF-α, BV6, and Z-VAD-FMK was prepared. For the positive control group and the test compound groups, the McCOY's 5A culture solution was added at 90 µL/well, and 10 µL of the culture medium containing the test compound was also added, thus making the final concentrations of TNF-α, BV6, and Z-VAD-FMK be 20 ng/mL, 2 µM, and 20 µM, respectively. For the DMSO (5‰) control group, 90 µL of the McCOY's 5A complete culture solution was added, and then 10 µL of DMSO was added, thus making the final concentration 5‰. • (3) Each target compound was three-fold diluted with a culture medium to 8 concentration gradients, with each concentration set in duplicate (10 µL/well). The final concentrations of each target compound were 1000.00/333.33/111.11/37.04/12.35/4.12/1.37/0.46 nM. • (4) The 96-well plate cultured for 24 h was taken out from the incubator, and the culture medium in the 96-well plate was carefully aspirated and discarded. A positive control group, test compound groups, and a DMSO (5‰) control group were set, and 10 µL of the corresponding compound was added to each group. […]
(In general: The SRB assay estimates cell density from bound dye.)

In patent EP4772510A2, “BENZAZEPINONE COMPOUND AND USE THEREOF” (HANGZHOU BIO-SINCERITY PHARMA-TECHCO., LTD., priority 2023, dated 2025) one finds EC50 data, which are given here for ten molecules.

What is called EC50 is the concentration at which the effect is half-maximal. On to `COCC#Cc1cc2c3c(c1)CCN3C(=O)C(NC(=O)c1ncn(Cc3c(F)cccc3F)n1)CC2` (centres unmarked) [III-5, 1-(2,6-difluorobenzyl)-N-(9-(3-methoxyprop-1-yn-1-yl)-4-oxo-1,2,3,4,6,7-hexahydroazepino[3,2,1-hi]indol-3-yl)-1H-1,2,4-triazole-3-carboxamide], for which the EC50 in the experiment with U937 cells and with HT-29 cells was less than 5 nM in each case.

As to `O=C(NC1CCc2cc(C#CC3CC3)cc3c2N(CC3)C1=O)c1ncn(Cc2c(F)cccc2F)n1` (centres unmarked) [III-6, N-(9-(cyclopropylethynyl)-4-oxo-1,2,3,4,6,7-hexahydroazepino[3,2,1-hi]indol-3-yl)-1-(2,6-difluorobenzyl)-1H-1,2,4-triazole-3-carboxamide], the EC50 in the experiment on U937 cells lay within 10 to 100 nM; in the experiment with HT-29 cells, 5 to 10 nM.

Take `Cn1cc(C#Cc2cc3c4c(c2)CCN4C(=O)C(NC(=O)c2ncn(Cc4ccccc4F)n2)CC3)cn1` (centres unmarked) [III-7, 1-(2-fluorobenzyl)-N-(9-((1-methyl-1H-pyrazol-4-yl)ethynyl)-4-oxo-1,2,3,4,6,7-hexahydroazepino[3,2,1-hi]indol-3-yl)-1H-1,2,4-triazole-3-carboxamide]: the EC50 in the experiment on U937 cells is less than 5 nM; in the experiment on HT-29 cells it was 10 to 100 nM.

Consider `Cn1cc(C#Cc2cc3c4c(c2)CCN4C(=O)C(NC(=O)c2ncn(Cc4ccc(F)cc4)n2)CC3)cn1` (centres unmarked) [III-8, 1-(4-fluorobenzyl)-N-(9-((1-methyl-1H-pyrazol-4-yl)ethynyl)-4-oxo-1,2,3,4,6,7-hexahydroazepino[3,2,1-hi]indol-3-yl)-1H-1,2,4-triazole-3-carboxamide], for which the results for the EC50 in the experiment with U937 cells and with HT-29 cells were 5 to 10 nM and 10 to 100 nM, respectively.

Regarding `Cn1cc(C#Cc2cc3c4c(c2)CCN4C(=O)C(NC(=O)c2ncn(Cc4ccc(F)cc4F)n2)CC3)cn1` (centres unmarked) [III-9, 1-(2,4-difluorobenzyl)-N-(9-((1-methyl-1H-pyrazol-4-yl)ethynyl)-4-oxo-1,2,3,4,6,7-hexahydroazepino[3,2,1-hi]indol-3-yl)-1H-1,2,4-triazole-3-carboxamide], the 50% effective concentration (EC50) in the experiment with U937 cells and in the experiment on HT-29 cells was less than 5 nM in each case.

For the molecule `Cn1cc(C#Cc2cc3c4c(c2)CCN4C(=O)C(NC(=O)c2ncn(Cc4cc(F)cc(F)c4)n2)CC3)cn1` (centres unmarked) [III-11, 1-(3,5-difluorobenzyl)-N-(9-((1-methyl-1H-pyrazol-4-yl)ethynyl)-4-oxo-1,2,3,4,6,7-hexahydroazepino[3,2,1-hi]indol-3-yl)-1H-1,2,4-triazole-3-carboxamide], the EC50 in the experiment with U937 cells and in the experiment with HT-29 cells was less than 5 nM in each case.

In the case of `Cc1ccccc1Cn1cnc(C(=O)NC2CCc3cc(C#Cc4cnn(C)c4)cc4c3N(CC4)C2=O)n1` (centres unmarked) [III-13, N-(9-((1-methyl-1H-pyrazol-4-yl)ethynyl)-4-oxo-1,2,3,4,6,7-hexahydroazepino[3,2,1-hi]indol-3-yl)-1-(2-methylbenzyl)-1H-1,2,4-triazole-3-carboxamide], the EC50 in the experiment on U937 cells is less than 5 nM; in the experiment on HT-29 cells it was 5 to 10 nM.

As for `Cc1ccc(Cn2cnc(C(=O)NC3CCc4cc(C#Cc5cnn(C)c5)cc5c4N(CC5)C3=O)n2)cc1` (centres unmarked) [III-14, N-(9-((1-methyl-1H-pyrazol-4-yl)ethynyl)-4-oxo-1,2,3,4,6,7-hexahydroazepino[3,2,1-hi]indol-3-yl)-1-(4-methylbenzyl)-1H-1,2,4-triazole-3-carboxamide], the EC50 in the experiment with U937 cells was less than 5 nM; in the experiment with HT-29 cells it was 5 to 10 nM.

`O=C(NC1CCc2cc(C#CC3CCNCC3)cc3c2N(CC3)C1=O)c1ncn(Cc2c(F)cccc2F)n1` (centres unmarked) [III-15, 1-(2,6-difluorobenzyl)-N-(4-oxo-9-(piperidin-4-ylethynyl)-1,2,3,4,6,7-hexahydroazepino[3,2,1-hi]indol-3-yl)-1H-1,2,4-triazole-3-carboxamide]: the 50% effective concentration (EC50) in the experiment on U937 cells and in the experiment on HT-29 cells was less than 5 nM in each case.

With `CC(C)(C)OC(=O)N1CCC(C#Cc2cc3c4c(c2)CCN4C(=O)C(NC(=O)c2ncn(Cc4c(F)cccc4F)n2)CC3)CC1` (centres unmarked) [III-16, tert-butyl 4-((3-(1-(2,6-difluorobenzyl)-1H-1,2,4-triazole-3-carboxamido)-4-oxo-1,2,3,4,6,7-hexahydroazepino[3,2,1-hi]indol-9-yl)ethynyl)piperidine-1-carboxylate], the EC50 in the experiment on U937 cells is less than 5 nM; in the experiment on HT-29 cells it was 10 to 100 nM.
